Experiment [1] is described as follows: cells. The experiment is classed as functional.
Experiment [2] deals with T1, Replicative DNA helicase DnaB (Mycobacterium tuberculosis, UniProt P9WMR3).
T1 sequence (P9WMR3 whole entry): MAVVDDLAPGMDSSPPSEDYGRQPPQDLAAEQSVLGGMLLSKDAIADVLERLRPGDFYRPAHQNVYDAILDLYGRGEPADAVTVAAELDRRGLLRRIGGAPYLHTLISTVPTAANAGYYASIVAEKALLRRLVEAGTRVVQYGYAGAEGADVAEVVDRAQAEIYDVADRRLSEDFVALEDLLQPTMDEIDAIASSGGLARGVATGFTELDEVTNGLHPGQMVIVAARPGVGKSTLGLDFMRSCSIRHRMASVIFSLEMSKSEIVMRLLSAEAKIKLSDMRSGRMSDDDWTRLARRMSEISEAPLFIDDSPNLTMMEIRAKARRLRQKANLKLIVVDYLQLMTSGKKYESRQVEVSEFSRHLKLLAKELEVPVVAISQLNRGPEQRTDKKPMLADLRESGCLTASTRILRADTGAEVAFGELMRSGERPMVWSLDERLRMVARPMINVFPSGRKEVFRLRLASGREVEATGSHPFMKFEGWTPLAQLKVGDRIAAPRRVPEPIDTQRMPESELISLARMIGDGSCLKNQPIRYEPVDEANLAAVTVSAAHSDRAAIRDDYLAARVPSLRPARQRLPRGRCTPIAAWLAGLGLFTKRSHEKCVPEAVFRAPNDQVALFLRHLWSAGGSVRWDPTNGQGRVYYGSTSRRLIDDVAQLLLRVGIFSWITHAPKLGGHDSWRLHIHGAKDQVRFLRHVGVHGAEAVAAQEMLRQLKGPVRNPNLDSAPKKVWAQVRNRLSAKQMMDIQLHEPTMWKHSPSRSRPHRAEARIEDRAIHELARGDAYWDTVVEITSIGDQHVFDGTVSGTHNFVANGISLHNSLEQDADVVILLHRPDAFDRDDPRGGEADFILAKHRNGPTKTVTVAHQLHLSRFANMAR
Kind of experiment: DnaB intein splicing inhibitors, dose response, biochemical, cell-free fluorescence (AID 449749). Format: functional.

Experiment [3] is described as follows: HepG2 cell cytotoxicity, dose response, cytotoxicity control for non-replicating M. tuberculosis project (AID 489018). The experiment is classed as functional. Conditions: Mycobacterium tuberculosis.
Experiment [4] deals with HT-1080. Put plainly: HT1080 cell viability loss – fluorescence readout (AID 620). The experiment is classed as functional, cell-based. As to conditions: Homo sapiens.
Experiment [5] concerns the target Sphingosine 1-phosphate receptor 1 (Homo sapiens, UniProt P21453). The experiment is classed as functional.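 Also: Tango beta-arrestin reporter U2OS cells stimulated with S1P near its EC80; inhibitor potency meaning antagonism of receptor activation by the natural agonist.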
For experiment [6], the target named is T2, Sphingosine 1-phosphate receptor 4 (Homo sapiens, UniProt O95977). Kind of experiment: Fluorescence dose response cell-based high throughput screening assay for antagonists of the Sphingosine 1-Phosphate Receptor 4 (S1P4). [Related pubchem assays: 1524 (Confirmation in triplicates.), 1510 (Primary screen.)]. The experiment is classed as functional.
The nature of experiment [7]: HPDE-C7 pancreatic duct cell viability loss – fluorescence, HTS (AID 430). The experiment is classed as functional, cell-based. Conditions: Homo sapiens.
Experiment [8] can be described thus: viability loss of HPDE-C7K cells – cell-based, fluorescence, HTS, primary screen (AID 431). Format: functional. Conditions: Homo sapiens.
A short description of experiment [9]: cells. Format: functional, cell-based.
Experiment [10] deals with T3, Luciferin 4-monooxygenase (Photinus pyralis, UniProt P08659). Put plainly: inhibition of purified Photinus pyralis luciferase – biochemical, luminescence, dose response (AID 1891).
Experiment [11] has as its target T3, Luciferin 4-monooxygenase. Kind of experiment: Counter Screen for Luciferase-based Assay Positives. [Related pubchem assays: 620, 618, 411 ]. (In general: A counterscreen serves to expose hits that act by an unwanted route or on another target.)
Experiment [12] deals with T2, Sphingosine 1-phosphate receptor 4. Put plainly: Late stage fluorescence dose response cell-based screening assay for antagonists of the Sphingosine 1-Phosphate Receptor 4 (S1P4). [Related pubchem assays: 1524 (Confirmation screen (S1P4 antagonists).), 1510 (Primary screen (S1P4 antagonists).), 1853 (Summary AID (S1P4 antagonists).), 1692 (Dose response screen (S1P4 antagonists).)]. Format: functional.

A short description of experiment [13]: THP-1 cell cytotoxicity, dose response, cytotoxicity control for non-replicating M. tuberculosis project (AID 489025). Format: functional.
A short description of experiment [14]: Luminescence Cell-Based Dose Confirmation HTS to Identify Inhibitors of Platelet Dense Granule Release. [Related pubchem assays: 1663 (Primary HTS), 1678 (Summary of Project)]. The experiment is classed as functional.
A short description of experiment [15]: cells. The experiment is classed as functional, cell-based. The source holds these as a separate data set.
For experiment [16], the target named is T4, Protein RecA (Mycobacterium tuberculosis, UniProt P9WHJ3).
T4 sequence (P9WHJ3 whole entry): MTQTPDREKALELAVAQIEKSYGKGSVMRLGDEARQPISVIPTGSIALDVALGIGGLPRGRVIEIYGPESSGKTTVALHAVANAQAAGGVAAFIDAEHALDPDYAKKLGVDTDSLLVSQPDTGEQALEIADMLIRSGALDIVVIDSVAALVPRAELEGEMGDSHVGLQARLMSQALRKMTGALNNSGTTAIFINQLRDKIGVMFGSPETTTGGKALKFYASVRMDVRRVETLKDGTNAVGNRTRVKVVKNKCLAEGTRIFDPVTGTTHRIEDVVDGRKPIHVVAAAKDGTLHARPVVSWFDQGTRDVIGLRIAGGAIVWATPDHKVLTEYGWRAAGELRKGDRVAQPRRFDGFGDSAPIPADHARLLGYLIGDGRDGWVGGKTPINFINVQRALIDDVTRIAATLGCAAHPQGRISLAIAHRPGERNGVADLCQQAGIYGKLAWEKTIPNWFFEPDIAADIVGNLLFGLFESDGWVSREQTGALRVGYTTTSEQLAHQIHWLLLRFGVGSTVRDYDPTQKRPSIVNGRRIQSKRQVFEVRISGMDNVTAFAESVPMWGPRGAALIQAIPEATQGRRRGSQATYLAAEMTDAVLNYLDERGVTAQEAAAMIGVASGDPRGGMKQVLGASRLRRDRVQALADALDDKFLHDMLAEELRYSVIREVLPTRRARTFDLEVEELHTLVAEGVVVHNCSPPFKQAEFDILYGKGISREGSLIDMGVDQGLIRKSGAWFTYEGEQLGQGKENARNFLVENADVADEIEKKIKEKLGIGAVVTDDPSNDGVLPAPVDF
Kind of experiment: Fluorescence Cell-Free Homogeneous Dose Retest to Identify Inhibitors of RecA-Intein Splicing Activity. [Related pubchem assays (depositor defined):AID2097, AID2223, AID489010, AID492950]. Format: functional.

In experiment [17] the test system is CHO. Kind of experiment: CHO cell viability loss, potency – luminescence, cytotoxicity control for TLR9-MyD88 binding inhibitor project, dose response (AID 588339).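 Also: CHO cells stably coexpressing TLR9 and MyD88 fusions from primary screen; compound exposure lasted 48 hours before viability readout.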 The experiment is classed as functional, cell-based, hamster. As to conditions: Cricetulus griseus.
Experiment [18] addresses Beta Lactamase (Pseudomonas aeruginosa, UniProt Q932Y6). Put plainly: BLA reporter interference, concentration series – BLA reporter cells, FRET fluorescence, artefact control for TLR9-MyD88 binding inhibitor project, dose response (AID 588341).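 Also: cell based assay in CHO-K1 cells stably expressing beta-lactamase.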 Format: cell-based.

This note sets out measurements from ChEMBL document CHEMBL1201862, “PubChem BioAssay data set” (2004).

Calls of active or inactive are those of the source.

T3 sequence (P08659 whole entry): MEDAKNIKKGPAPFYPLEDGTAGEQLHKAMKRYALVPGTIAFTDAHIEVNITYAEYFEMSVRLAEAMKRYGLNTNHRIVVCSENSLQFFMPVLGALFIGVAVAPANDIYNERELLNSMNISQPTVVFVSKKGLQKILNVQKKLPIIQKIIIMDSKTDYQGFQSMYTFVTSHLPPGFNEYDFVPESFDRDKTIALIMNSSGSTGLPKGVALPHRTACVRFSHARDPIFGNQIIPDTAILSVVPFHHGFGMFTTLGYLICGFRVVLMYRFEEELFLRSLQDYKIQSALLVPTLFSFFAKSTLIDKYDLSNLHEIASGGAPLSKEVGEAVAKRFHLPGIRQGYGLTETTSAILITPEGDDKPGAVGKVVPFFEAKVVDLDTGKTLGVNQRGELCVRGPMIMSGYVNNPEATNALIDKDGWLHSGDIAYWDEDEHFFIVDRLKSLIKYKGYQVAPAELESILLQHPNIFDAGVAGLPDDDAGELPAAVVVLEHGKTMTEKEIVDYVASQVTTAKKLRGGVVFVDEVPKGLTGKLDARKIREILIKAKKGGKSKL
T2 sequence (O95977 whole entry): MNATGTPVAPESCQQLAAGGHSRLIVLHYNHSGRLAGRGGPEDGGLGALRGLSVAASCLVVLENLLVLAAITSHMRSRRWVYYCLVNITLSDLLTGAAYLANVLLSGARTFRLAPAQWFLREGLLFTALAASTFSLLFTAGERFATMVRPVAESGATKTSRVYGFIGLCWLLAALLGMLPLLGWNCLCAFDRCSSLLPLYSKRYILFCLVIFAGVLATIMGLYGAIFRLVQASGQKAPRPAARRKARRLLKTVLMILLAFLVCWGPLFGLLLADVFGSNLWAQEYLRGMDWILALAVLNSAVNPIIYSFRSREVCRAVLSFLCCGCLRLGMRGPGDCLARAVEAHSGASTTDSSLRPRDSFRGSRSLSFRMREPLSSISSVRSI
Beta Lactamase, sequence (Q932Y6 whole entry): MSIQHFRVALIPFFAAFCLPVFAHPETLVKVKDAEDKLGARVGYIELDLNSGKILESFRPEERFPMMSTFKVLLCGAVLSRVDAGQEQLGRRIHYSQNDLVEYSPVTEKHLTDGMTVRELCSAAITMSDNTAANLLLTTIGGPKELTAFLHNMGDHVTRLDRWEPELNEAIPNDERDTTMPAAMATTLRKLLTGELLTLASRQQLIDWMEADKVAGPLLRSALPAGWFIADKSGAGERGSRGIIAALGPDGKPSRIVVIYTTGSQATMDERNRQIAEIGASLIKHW
Sphingosine 1-phosphate receptor 1, sequence (P21453 whole entry): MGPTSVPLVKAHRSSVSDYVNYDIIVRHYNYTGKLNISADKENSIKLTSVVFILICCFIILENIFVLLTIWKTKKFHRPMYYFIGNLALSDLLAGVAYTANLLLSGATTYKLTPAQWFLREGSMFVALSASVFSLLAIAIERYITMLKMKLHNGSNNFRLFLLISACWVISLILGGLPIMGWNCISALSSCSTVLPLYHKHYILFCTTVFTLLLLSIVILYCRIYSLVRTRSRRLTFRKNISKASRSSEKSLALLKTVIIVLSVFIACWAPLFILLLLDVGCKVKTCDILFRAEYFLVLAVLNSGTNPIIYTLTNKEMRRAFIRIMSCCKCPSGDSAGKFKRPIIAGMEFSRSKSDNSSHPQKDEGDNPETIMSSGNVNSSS

Regarding `CCOC(=O)CCS(=O)(=O)c1nc(-c2ccccc2)cc(C(F)(F)F)n1`, the IC50 is 2.7 µM (active) in [1]; 15.5 µM (not active) in [5]; 0.843 µM (active) in experiment [6]; 3.58 µM (not active) in [12]; 3.49 µM (active) in experiment [17]; 28.2 µM (inactive) in [18]. In addition, the AC50 in experiment [2] was 4.45 µM (active). In addition, the CC50 in experiment [3] is 16.2 µM (active); in experiment [13], 19.9 µM (active). For the same molecule, the EC50 was 14 µM (active) in [4]; 4.94 µM (active) in experiment [7]; 4.4 µM (active) in experiment [8]; > 350 µM (not active) in [9]; > 112 µM (not active) in [10]; < 0.2 µM (active) in [11]. The EC50 in experiment [14] was 14.1 µM (active); in [15] it was 43.4 µM (active); in [16], 3.23 µM (active).

As usually defined, the IC50 is the midpoint of a concentration-inhibition curve. By AC50 is commonly meant the concentration giving half of the maximal activity seen. For orientation: CC50 means the concentration at which the toxic effect on the cells reaches its halfway point. By EC50 is commonly meant the concentration giving half of the maximal effect.
